Laboratory results as given in PubChem BioAssay (NCI).
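Cultured in 96-well plates, cells were exposed to test compound for 48 hours across five concentrations. At the GI50, growth is halved. The concentration for full growth arrest is given as TGI.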

What was measured:
Assay in all cases: DTP human tumour cell line panel, 48 h
HOP-62 NSCLC = tested on: HOP-62 NSCLC
HOP-92 NSCLC = tested on: HOP-92 NSCLC
IGROV1 ovarian = tested on: IGROV1 ovarian
MDA-N = tested on: MDA-N
TK-10 renal = tested on: TK-10 renal
DLD-1 colon = tested on: DLD-1 colon
DMS 114 small cell lung = tested on: DMS 114 small cell lung
DMS 273 small cell lung = tested on: DMS 273 small cell lung
HOP-18 NSCLC = tested on: HOP-18 NSCLC
KM20L2 colon = tested on: KM20L2 colon
M19-MEL melanoma = tested on: M19-MEL melanoma
SNB-78 CNS = tested on: SNB-78 CNS
XF 498 CNS = tested on: XF 498 CNS
LXFL 529 NSCLC = tested on: LXFL 529 NSCLC

SMILES: C=C1C(=O)OC2/C=C(\C)C(O)CC(O)C(C)(O)CC(OC(=O)/C(C)=C/C)C12 (stereo not given)
- TGI (HOP-62 NSCLC): > 100 µM
- TGI (HOP-92 NSCLC): 99.8 µM
- TGI (IGROV1 ovarian): > 100 µM
- TGI (MDA-N): > 100 µM
- TGI (TK-10 renal): > 100 µM

SMILES: [Cl-].[Rh+3].c1ccc(-c2ccnc3c2ccc2c(-c4ccccc4)ccnc23)cc1.c1ccc(-c2ccnc3c2ccc2c(-c4ccccc4)ccnc23)cc1.c1ccc(-c2ccnc3c2ccc2c(-c4ccccc4)ccnc23)cc1
- TGI (DLD-1 colon): > 64.4 µM
- TGI (DMS 114 small cell lung): 75 µM
- TGI (DMS 273 small cell lung): 83.1 µM
- TGI (HOP-18 NSCLC): > 87.4 µM
- TGI (HOP-62 NSCLC): > 100 µM
- GI50 (HOP-92 NSCLC): 19 µM
- TGI (HOP-92 NSCLC): > 77.9 µM
- TGI (IGROV1 ovarian): > 100 µM
- TGI (KM20L2 colon): > 100 µM
- TGI (M19-MEL melanoma): > 86.2 µM
- TGI (SNB-78 CNS): > 100 µM
- GI50 (XF 498 CNS): 23.1 µM
- TGI (XF 498 CNS): 89.3 µM

SMILES: Cc1ccc(S(=O)(=O)N2CCSCCSCCN(S(=O)(=O)c3ccc(C)cc3)CCN(S(=O)(=O)c3ccc(C)cc3)CC2)cc1
- TGI (HOP-62 NSCLC): > 100 µM
- TGI (HOP-92 NSCLC): > 100 µM
- TGI (IGROV1 ovarian): > 100 µM
- TGI (MDA-N): > 100 µM
- TGI (TK-10 renal): > 100 µM

SMILES: C=CCN1C(=O)/C(=C/c2ccc(C)cc2)N=C1SC/C=C/C
- TGI (HOP-62 NSCLC): > 100 µM
- TGI (HOP-92 NSCLC): 90.9 µM
- TGI (IGROV1 ovarian): > 100 µM
- TGI (MDA-N): > 100 µM
- TGI (TK-10 renal): > 100 µM

SMILES: O=C(CSc1nnc(Cc2ccccc2)o1)Nc1ccc(Cl)cc1
- TGI (DLD-1 colon): > 100 µM
- TGI (DMS 114 small cell lung): > 100 µM
- TGI (DMS 273 small cell lung): > 100 µM
- TGI (HOP-18 NSCLC): > 100 µM
- TGI (HOP-62 NSCLC): > 100 µM
- TGI (IGROV1 ovarian): > 100 µM
- TGI (KM20L2 colon): > 100 µM
- TGI (LXFL 529 NSCLC): > 100 µM
- TGI (M19-MEL melanoma): > 100 µM
- TGI (SNB-78 CNS): > 100 µM
- TGI (TK-10 renal): > 100 µM

SMILES: Cc1cc2c(cc1O)CC[C@@H]1[C@@H]2CC[C@]2(C)[C@@H](O)CC[C@@H]12
- GI50 (HOP-62 NSCLC): 10.9 µM
- TGI (HOP-62 NSCLC): 24.9 µM
- TGI (HOP-92 NSCLC): 30.4 µM
- TGI (IGROV1 ovarian): 45.4 µM
- TGI (MDA-N): 4.39 µM
- TGI (TK-10 renal): 91.5 µM

SMILES: Cc1ccc(/C=C2\NC(=S)N(CN3CCOCC3)C2=O)cc1
- TGI (HOP-62 NSCLC): > 100 µM
- TGI (HOP-92 NSCLC): > 100 µM
- TGI (IGROV1 ovarian): > 100 µM
- TGI (MDA-N): > 100 µM
- TGI (TK-10 renal): > 100 µM

SMILES: O=C(O)c1c(-c2c3ccc(=O)cc-3oc3cc(O)ccc23)cc2ccccc2c1-c1ccccc1
- TGI (HOP-62 NSCLC): > 100 µM
- TGI (HOP-92 NSCLC): > 100 µM
- TGI (IGROV1 ovarian): > 100 µM
- TGI (MDA-N): > 100 µM
- TGI (TK-10 renal): > 100 µM

SMILES: CCCn1cnc2c(NN=O)ncnc21
- TGI (HOP-62 NSCLC): > 100 µM
- TGI (HOP-92 NSCLC): > 100 µM
- TGI (IGROV1 ovarian): > 100 µM
- TGI (MDA-N): > 100 µM
- TGI (TK-10 renal): > 100 µM

SMILES: O=C(CCCCCCCCC(=O)NN1C(=O)/C(=C\c2ccc(O)c(O)c2)SC1c1c(O)ccc2ccccc12)NN1C(=O)C(=Cc2ccc(O)c(O)c2)SC1c1c(O)ccc2ccccc12 (stereo not given)
- TGI (HOP-62 NSCLC): > 36.8 µM
- TGI (HOP-92 NSCLC): > 62.7 µM
- TGI (IGROV1 ovarian): > 55.5 µM
- TGI (MDA-N): > 100 µM
- TGI (TK-10 renal): > 100 µM

SMILES: CCOC(=O)c1c(C)n(Cc2ccccc2)c2c1cc(O)c1[nH]c3c(c12)CCCC3
- TGI (HOP-62 NSCLC): 24.6 µM
- TGI (HOP-92 NSCLC): 2.11 µM
- TGI (IGROV1 ovarian): 15.6 µM
- TGI (MDA-N): 28.2 µM
- TGI (TK-10 renal): 23.6 µM

SMILES: Oc1ccc2c(c1)OCC(O)(c1ccccc1O)C2 (stereo not given)
- TGI (HOP-62 NSCLC): > 100 µM
- TGI (HOP-92 NSCLC): > 100 µM
- TGI (IGROV1 ovarian): > 100 µM
- TGI (MDA-N): > 100 µM
- TGI (TK-10 renal): > 100 µM

SMILES: O=c1ccc2ccccc2o1
- TGI (DLD-1 colon): > 100 µM
- TGI (DMS 114 small cell lung): > 100 µM
- TGI (HOP-18 NSCLC): > 100 µM
- TGI (HOP-62 NSCLC): > 100 µM
- TGI (HOP-92 NSCLC): > 100 µM
- TGI (IGROV1 ovarian): > 100 µM
- TGI (KM20L2 colon): > 100 µM
- TGI (LXFL 529 NSCLC): > 100 µM
- TGI (M19-MEL melanoma): > 100 µM
- TGI (SNB-78 CNS): > 100 µM
- TGI (TK-10 renal): > 100 µM
- TGI (XF 498 CNS): > 100 µM

SMILES: O=c1c2cc(Br)ccc2oc2nc3n(c(=O)c12)CCCS3
- TGI (HOP-62 NSCLC): > 100 µM
- TGI (HOP-92 NSCLC): > 100 µM
- TGI (IGROV1 ovarian): > 100 µM
- TGI (MDA-N): > 100 µM
- TGI (TK-10 renal): > 100 µM

SMILES: Cn1c(N2CCCC2)c(C=O)c(=O)n(C)c1=O
- TGI (HOP-62 NSCLC): > 100 µM
- TGI (HOP-92 NSCLC): > 100 µM
- TGI (IGROV1 ovarian): > 100 µM
- TGI (MDA-N): > 100 µM
- TGI (TK-10 renal): > 100 µM

SMILES: CN1N=C2c3ccccc3CC[C@H]2C1c1ccccc1 (stereo not given in full)
- TGI (DLD-1 colon): > 100 µM
- TGI (DMS 114 small cell lung): 70.8 µM
- TGI (DMS 273 small cell lung): > 100 µM
- TGI (HOP-18 NSCLC): > 100 µM
- TGI (HOP-62 NSCLC): > 100 µM
- TGI (HOP-92 NSCLC): 77.9 µM
- TGI (IGROV1 ovarian): > 100 µM
- TGI (KM20L2 colon): > 100 µM
- TGI (LXFL 529 NSCLC): > 100 µM
- TGI (M19-MEL melanoma): 66.1 µM
- TGI (SNB-78 CNS): > 100 µM
- TGI (TK-10 renal): > 100 µM

SMILES: Cn1c(C(C#N)c2cc(Cl)ncn2)nc2ccccc21 (stereo not given)
- TGI (HOP-62 NSCLC): > 100 µM
- TGI (HOP-92 NSCLC): > 100 µM
- TGI (IGROV1 ovarian): > 100 µM
- TGI (MDA-N): > 100 µM
- TGI (TK-10 renal): > 100 µM

SMILES: CCSc1nc2sc(C)c(C)c2c(=O)n1-c1ccc(C(=O)O)cc1
- TGI (DLD-1 colon): > 100 µM
- TGI (DMS 114 small cell lung): > 100 µM
- TGI (HOP-18 NSCLC): 48.6 µM
- TGI (HOP-62 NSCLC): > 100 µM
- TGI (HOP-92 NSCLC): > 100 µM
- TGI (IGROV1 ovarian): > 100 µM
- TGI (KM20L2 colon): > 100 µM
- TGI (M19-MEL melanoma): > 100 µM
- TGI (SNB-78 CNS): > 100 µM
- TGI (TK-10 renal): > 100 µM
- TGI (XF 498 CNS): > 100 µM

SMILES: N=c1c2c3n(c4c(=O)n(-c5ccccc5)c(=S)n(c(=O)n1-c1ccccc1)c24)CCCCC3
- TGI (HOP-62 NSCLC): > 100 µM
- TGI (HOP-92 NSCLC): > 100 µM
- TGI (IGROV1 ovarian): > 100 µM
- TGI (MDA-N): > 100 µM
- TGI (TK-10 renal): > 100 µM

SMILES: CO/N=C1\CCC2(O)C3Cc4ccc(O)c5c4C2(CCN3CC2CC2)[C@H]1O5 (stereo not given in full)
- TGI (HOP-62 NSCLC): > 100 µM
- TGI (HOP-92 NSCLC): > 100 µM
- TGI (IGROV1 ovarian): > 100 µM
- TGI (MDA-N): > 100 µM
- TGI (TK-10 renal): > 100 µM

SMILES: OCCCSc1ccccc1SCCCO
- TGI (HOP-62 NSCLC): > 100 µM
- TGI (HOP-92 NSCLC): > 100 µM
- TGI (IGROV1 ovarian): > 100 µM
- TGI (MDA-N): > 100 µM
- TGI (TK-10 renal): > 100 µM

SMILES: C#CC(O)/C=C/CCCCCCC#CC/C=C\CC#CCCCCCC/C=C/C(O)C#C (stereo not given)
- TGI (HOP-62 NSCLC): 4.72 µM
- TGI (HOP-92 NSCLC): 5.57 µM
- TGI (IGROV1 ovarian): 2.17 µM
- TGI (MDA-N): 7.52 µM
- TGI (TK-10 renal): 11 µM

SMILES: Cc1cccc2sc(NC(=O)c3cc([N+](=O)[O-])ccc3Cl)nc12
- TGI (HOP-62 NSCLC): > 73.1 µM
- TGI (HOP-92 NSCLC): > 31.2 µM
- TGI (IGROV1 ovarian): 10.7 µM
- TGI (MDA-N): 3.69 µM
- TGI (TK-10 renal): 11.4 µM

SMILES: COC(=O)C(NC(=O)CNC(=O)CSc1nnc(COc2ccc(Cl)cc2)n1-c1ccccc1)C(C)C (stereo not given)
- TGI (HOP-62 NSCLC): 92 µM
- TGI (HOP-92 NSCLC): 51.5 µM
- TGI (IGROV1 ovarian): 50.1 µM
- TGI (MDA-N): 51.2 µM
- TGI (TK-10 renal): 34.3 µM

SMILES: C/C=C(/C)C(=O)O[C@@H]1c2c(C)coc2C[C@H]2CC[C@H](O)[C@H](C)[C@]21C
- TGI (HOP-62 NSCLC): > 100 µM
- TGI (HOP-92 NSCLC): > 100 µM
- TGI (IGROV1 ovarian): > 100 µM
- TGI (MDA-N): > 100 µM
- TGI (TK-10 renal): > 100 µM

SMILES: COc1ccc(-c2cc(-c3ccc(Nc4ccnc5cc(C(F)(F)F)ccc45)cc3)[nH]c(=O)c2C#N)c2ccccc12
- TGI (HOP-62 NSCLC): 47.2 µM
- TGI (HOP-92 NSCLC): > 100 µM
- TGI (IGROV1 ovarian): > 100 µM
- TGI (MDA-N): > 52.9 µM
- TGI (TK-10 renal): > 90.7 µM
